Reference: patent US10292968B2, “Substituted heterocycles as bromodomain inhibitors” (Zenith Epigenetics Ltd., priority 2014, dated 2019)
Structures can show the parent of a compound that is named as a salt.

Columns and labels:
[1] = molecular target: T1, Brd4 bromodomain 1 (BRD4(1)) (Homo sapiens, UniProt O60885); test: AlphaScreen inhibition of tetra-acetylated histone H4 binding to BRD4(1); settings: BRD4(1) at 20 nM, tetra-acetylated histone H4 peptide, 30 min incubation; for IC50: read-out: Alpha Screen BRD4(1)
T1 construct: N-terminally His-tagged bromodomains (BRD4(1) at 20 nM and BRD4(2) at 100 nM); made in house; host or cells: E. coli BL21(DE3)
Description: (§1) Proteins were cloned and overexpressed with a N-terminal 6×His tag, then purified by nickel affinity followed by size exclusion chromatography. Briefly, E. coli BL21(DE3) cells were transformed with a recombinant expression vector encoding N-terminally Nickel affinity tagged bromodomains from Brd2, Brd3, Brd4. Cell cultures were incubated at 37° C. with shaking to the appropriate density and induced overnight with IPTG. The supernatant of lysed cells was loaded onto Ni-IDA column for purification. Eluted protein was pooled, concentrated and further purified by size exclusion chromatography. Fractions representing monomeric protein were pooled, concentrated, aliquoted, and frozen at −80° C. for use in subsequent experiments.
(§2) Binding of tetra-acetylated histone H4 peptide (Millipore) and BET bromodomains was confirmed by Amplified Luminescent Proximity Homogenous Assay (AlphaScreen). N-terminally His-tagged bromodomains (BRD4(1) at 20 nM and BRD4(2) at 100 nM) and biotinylated tetra-acetylated histone H4 (10-25 nM) were incubated in the presence of nickel chelate acceptor beads and streptavidin donor beads (PerkinAlmer, 6760000K) added to a final concentration of 2 μg/ml under green light in a white 96 well microtiter plate (Greiner). For inhibition assays, serially diluted compounds were added to the reaction mixtures in a 0.1% final concentrations of DMSO. Final buffer concentrations were 50 mM HEPES, 100 mM NaCl and 0.1% BSA buffer, pH 7.4 and optimized to 30 min incubation time. Assay plates were read at 570 nm on a Synergy H4 Plate Reader (Biotek). IC50 values were determined from a dose response curve.

[2] = molecular target: T2, Brd 4 bromodomain 2 (BRD4(2)) (Homo sapiens, UniProt O60885); test: AlphaScreen inhibition of tetra-acetylated histone H4 binding to BRD4(2); settings: BRD4(2) at 100 nM, tetra-acetylated histone H4 peptide, 30 min incubation; for IC50: read-out: Alpha Screen BRD4(2)
T2 construct: N-terminally His-tagged bromodomains (BRD4(1) at 20 nM and BRD4(2) at 100 nM); made in house; host or cells: E. coli BL21(DE3)
Description: as §1, §2

cMYC = test: Inhibition of cMYC expression (mRNA, real-time PCR) in MV4-11 cells; format: cell-based; settings: Human AML MV4-11 cells, 3 h; for IC50: read-out: c-myc activity
Description: MV4-11 cells (CRL-9591) were plated at a density of 2.5×10^4 cells per well in 96 well U-bottom plates and treated with increasing concentrations of test compound or DMSO (0.1%) in IMDM media containing 10% FBS and penicillin/streptomycin, and incubated for 3 h at 37° C. Triplicate wells were used for each concentration. Cells were pelleted by centrifugation and harvested using the mRNA Catcher PLUS kit according to manufacturer's instructions. The eluted mRNA isolated was then used in a one-step quantitative real-time PCR reaction, using components of the RNA UltraSense™ One-Step Kit (Life Technologies) together with Applied Biosystems TaqMan® primer-probes for cMYC and Cyclophilin. Real-time PCR plates were run on a ViiA™7 real time PCR machine (Applied Biosystems), data was analyzed, normalizing the Ct values for cMYC to an internal control, prior to determining the fold expression of each sample, relative to the control.

MV4-11 cells = test: Inhibition of cell proliferation in MV4-11 cells (Cell Titer Aqueous One); format: cell-based; settings: Human AML MV-4-11 cells, 72 h; for IC50: MV4-11
Description: MV4-11 cells (CRL-9591) were plated at a density of 5×10^4 cells per well in 96 well flat bottom plates and treated with increasing concentrations of test compound or DMSO (0.1%) in IMDM media containing 10% FBS and penicillin/streptomycin. Triplicate wells were used for each concentration and a well containing only media was used as a control. Plates were incubated at 37° C., 5% CO2 for 72 h before adding 20 μL of the Cell Titer Aqueous One Solution (Promega) to each well and incubated at 37° C., 5% CO2 for an additional 3-4 h. The absorbance was read at 490 nm in a spectrophotometer and the percentage of cell titer relative to DMSO-treated cells was calculated after correcting for background by subtracting the blank well's signal. IC50 values were calculated using the GraphPad Prism software.

Cn1ncc2ccc(-c3[nH]c(-c4ccccc4)nc3-c3n[nH]c(=O)n3C3CCCC3)cc21 [Example 21, 4-cyclopentyl-3-(5-(1-methyl-1H-indazol-6-yl)-2-phenyl-1H-imidazol-4-yl)-1H-1,2,4-triazol-5(4H)-one]
IC50 [1]: 3 to 30 µM
Alpha Screen BRD4(2) [2]: Not Active

CC(C)n1c(-c2nc(-c3ccccc3)[nH]c2-c2ccc3cnn(C)c3c2)n[nH]c1=O [Example 22, 4-isopropyl-3-(5-(1-methyl-1H-indazol-6-yl)-2-phenyl-1H-imidazol-4-yl)-1H-1,2,4-triazol-5(4H)-one]
IC50 [1]: 3 to 30 µM
IC50 [2]: 3 to 30 µM

Cn1ncc2ccc(-c3[nH]c(-c4ccccc4)nc3-c3n[nH]c(=O)n3C3CCC3)cc21 [Example 19, 4-cyclobutyl-3-(5-(1-methyl-1H-indazol-6-yl)-2-phenyl-1H-imidazol-4-yl)-1H-1,2,4-triazol-5(4H)-one]
IC50 [1]: 0.3 to 3 µM
IC50 [2]: 3 to 30 µM
IC50 (cMYC): 3 to 30 µM

Cn1ncc2ccc(-c3[nH]c(-c4ccccc4)nc3-c3n[nH]c(=O)n3CC3CC3)cc21 [Example 17, 4-(cyclopropylmethyl)-3-(5-(1-methyl-1H-indazol-6-yl)-2-phenyl-1H-imidazol-4-yl)-1H-1,2,4-triazol-5(4H)-one]
Alpha Screen BRD4(1) [1]: Not Active
Alpha Screen BRD4(2) [2]: Not Active

O=C1CCc2ccc(-c3[nH]c(-c4ccccc4)nc3-c3n[nH]c(=O)n3C3CC3)cc21 [Example 5, 4-cyclopropyl-3-(5-(3-oxo-2,3-dihydro-1H-inden-5-yl)-2-phenyl-1H-imidazol-4-yl)-1H-1,2,4-triazol-5(4H)-one hydrochloride]
Alpha Screen BRD4(1) [1]: Not Active
Alpha Screen BRD4(2) [2]: Not Active

NC(=O)c1cccc(-c2[nH]c(-c3ccccc3)nc2-c2n[nH]c(=O)n2C2CC2)c1 [Example 4, 3-(4-(4-cyclopropyl-5-oxo-4,5-dihydro-1H-1,2,4-triazol-3-yl)-2-phenyl-1H-imidazol-5-yl) benzamide hydrochloride]
IC50 [1]: 3 to 30 µM
Alpha Screen BRD4(2) [2]: Not Active
IC50 (cMYC): 3 to 30 µM
IC50 (MV4-11 cells): 3 to 30 µM

Cn1nc(-c2nc(-c3ccccc3)[nH]c2-c2ccc3cnn(C)c3c2)n(C2CC2)c1=O [Example 27, 4-cyclopropyl-1-methyl-3-(5-(1-methyl-1H-indazol-6-yl)-2-phenyl-1H-imidazol-4-yl)-1H-1,2,4-triazol-5(4H)-one hydrochloride]
IC50 [1]: 3 to 30 µM
Alpha Screen BRD4(2) [2]: Not Active

CC(=O)c1cncc(-c2[nH]c(-c3ccccc3)nc2-c2n[nH]c(=O)n2C2CC2)c1 [Example 12, 3-(5-(5-acetylpyridin-3-yl)-2-phenyl-1H-imidazol-4-yl)-4-cyclopropyl-1H-1,2,4-triazol-5(4H)-one formate]
IC50 [1]: 3 to 30 µM
IC50 [2]: 0.3 to 3 µM

COC(=O)c1ccc(C)c(-c2[nH]c(-c3ccccc3)nc2-c2n[nH]c(=O)n2C2CC2)c1 [Example 2, methyl 3-(4-(4-cyclopropyl-5-oxo-4,5-dihydro-1H-1,2,4-triazol-3-yl)-2-phenyl-1H-imidazol-5-yl)-4-methyl benzoate hydrochloride]
IC50 [1]: 3 to 30 µM
IC50 [2]: 3 to 30 µM
c-myc activity (cMYC): Not Active
Cell Proliferation activity (MV4-11 cells): Not Active

CCC(=O)c1cccc(-c2[nH]c(-c3ccccc3)nc2-c2n[nH]c(=O)n2C2CC2)c1 [Example 6, 4-cyclopropyl-3-(2-phenyl-5-(3-propionylphenyl)-1H-imidazol-4-yl)-1H-1,2,4-triazol-5(4H)-one hydrochloride]
IC50 [1]: 0.3 to 3 µM
IC50 [2]: 3 to 30 µM
IC50 (cMYC): 3 to 30 µM
IC50 (MV4-11 cells): 3 to 30 µM

Cn1ncc2ccc(-c3[nH]c(-c4cccnc4)nc3-c3n[nH]c(=O)n3C3CC3)cc21 [Example 24, 4-cyclopropyl-3-(5-(1-methyl-1H-indazol-6-yl)-2-(pyridin-3-yl)-1H-imidazol-4-yl)-1H-1,2,4-triazol-5(4H)-one dihydrochloride]
IC50 [1]: 3 to 30 µM
IC50 [2]: 3 to 30 µM

Cn1ncc2ccc(-c3[nH]c(-c4ccncc4)nc3-c3n[nH]c(=O)n3C3CC3)cc21 [Example 23, 4-cyclopropyl-3-(5-(1-methyl-1H-indazol-6-yl)-2-(pyridin-4-yl)-1H-imidazol-4-yl)-1H-1,2,4-triazol-5(4H)-one dihydrochloride]
IC50 [1]: ≤ 0.3 µM
IC50 [2]: 3 to 30 µM

Cc1nn(C)c2ccc(-c3[nH]c(-c4ccccc4)nc3-c3n[nH]c(=O)n3C3CC3)cc12 [Example 15, 4-cyclopropyl-3-(5-(1,3-dimethyl-1H-indazol-5-yl)-2-phenyl-1H-imidazol-4-yl)-1H-1,2,4-triazol-5(4H)-one hydrochloride]
IC50 [1]: 0.3 to 3 µM
IC50 [2]: 3 to 30 µM

CC(=O)c1ccc(C)c(-c2[nH]c(-c3ccccc3)nc2-c2n[nH]c(=O)n2C2CC2)c1 [Example 11, 3-(5-(5-acetyl-2-methylphenyl)-2-phenyl-1H-imidazol-4-yl)-4-cyclopropyl-1H-1,2,4-triazol-5(4H)-one hydrochloride]
IC50 [1]: 3 to 30 µM
Alpha Screen BRD4(2) [2]: Not Active

Cc1n[nH]c2ccc(-c3[nH]c(-c4ccccc4)nc3-c3n[nH]c(=O)n3C3CC3)cc12 [Example 13, 4-cyclopropyl-3-(5-(3-methyl-1H-indazol-5-yl)-2-phenyl-1H-imidazol-4-yl)-1H-1,2,4-triazol-5(4H)-one hydrochloride]
IC50 [1]: 0.3 to 3 µM
IC50 [2]: 0.3 to 3 µM
IC50 (cMYC): 3 to 30 µM
IC50 (MV4-11 cells): 3 to 30 µM

CNC(=O)c1cccc(-c2[nH]c(-c3ccccc3)nc2-c2n[nH]c(=O)n2C2CC2)c1 [Example 3, 3-(4-(4-cyclopropyl-5-oxo-4,5-dihydro-1H-1,2,4-triazol-3-yl)-2-phenyl-1H-imidazol-5-yl)-N-methyl benzamide hydrochloride]
IC50 [1]: 3 to 30 µM
IC50 [2]: 3 to 30 µM

Cn1ncc2ccc(-c3[nH]c(-c4ccccc4)nc3-c3n[nH]c(=O)n3CC(C)(C)C)cc21 [Example 20, 3-(5-(1-methyl-1H-indazol-6-yl)-2-phenyl-1H-imidazol-4-yl)-4-neopentyl-1H-1,2,4-triazol-5(4H)-one]
IC50 [1]: 0.3 to 3 µM
IC50 [2]: 3 to 30 µM

Cn1cc(-c2nc(-c3n[nH]c(=O)n3C3CC3)c(-c3ccc4cnn(C)c4c3)[nH]2)cn1 [Example 25, 4-cyclopropyl-3-(5-(1-methyl-1H-indazol-6-yl)-2-(1-methyl-1H-pyrazol-4-yl)-1H-imidazol-4-yl)-1H-1,2,4-triazol-5(4H)-one hydrochloride]
IC50 [1]: 0.3 to 3 µM
IC50 [2]: 3 to 30 µM

CC(C)Cn1c(-c2nc(-c3ccccc3)[nH]c2-c2ccc3cnn(C)c3c2)n[nH]c1=O [Example 18, 4-isobutyl-3-(5-(1-methyl-1H-indazol-6-yl)-2-phenyl-1H-imidazol-4-yl)-1H-1,2,4-triazol-5(4H)-one]
IC50 [1]: 0.3 to 3 µM
IC50 [2]: 3 to 30 µM
c-myc activity (cMYC): Not Active

Cn1ncc2ccc(-c3[nH]c(-c4cn[nH]c4)nc3-c3n[nH]c(=O)n3C3CC3)cc21 [Example 26, 4-cyclopropyl-3-(5-(1-methyl-1H-indazol-6-yl)-2-(1H-pyrazol-4-yl)-1H-imidazol-4-yl)-1H-1,2,4-triazol-5(4H)-one hydrochloride]
IC50 [1]: 3 to 30 µM
IC50 [2]: 3 to 30 µM

Cc1noc2ccc(-c3[nH]c(-c4ccccc4)nc3-c3n[nH]c(=O)n3C3CC3)cc12 [Example 16, 4-cyclopropyl-3-(5-(3-methylbenzo[d]isoxazol-5-yl)-2-phenyl-1H-imidazol-4-yl)-1H-1,2,4-triazol-5(4H)-one]
IC50 [1]: ≤ 0.3 µM
IC50 [2]: 0.3 to 3 µM
